{"source": "patent US11974973B2", "about": "“Ketone supplements-evoked effect on absence epilepsy by co-administration of uridine” (UNIVERSITY OF SOUTH FLORIDA, priority 2022, dated 2024)", "key": {"WAG/Rij rats [1]": {"system": "WAG/Rij rats", "assay": "EEG recording of spike-wave discharges (SWD number, averaged and total SWD time) in WAG/Rij rat model of human absence epilepsy", "assay_type": "in vivo", "excerpt": "Free access to water and food (Table 1), as well as standard laboratory conditions were provided.\nRats were implanted with stainless steel screw electrodes for EEG recording under isoflurane-air mixture (2.0-2.5%) anesthesia. The screw electrodes were placed epidurally over the cortex of the frontal (AP: 2.0 mm; L: 2.1 mm) and parietal (AP: −6.5 mm; L: 2.1 mm) areas. Reference electrodes and ground electrodes were also stainless-steel screw electrodes (implanted above the cerebellar cortex). All electrodes were soldered to a 10-pin socket and permanently attached to the skull with dentacrylate cement (Ivoclar Vivadent AG, Schaan, Liechtenstein). Lidocaine ointment (5%; EGIS, Budapest, Hungary) was used as post-operative pain relief.\nThe EEG was recorded in a Faraday cage. […] The sampling rate was 500 Hz whereas the bandwidth of the EEG recording was 0.3 Hz to 150 Hz. Both the treatments and handling may induce stress and behavioral changes, which may modify the SWD number. […] For this reason, data of the first 30 min after the treatments was excluded from the analysis. Thus, the number and time of SWDs were considered between 30 and 270 min of post-treatment time (from 1.00 PM to 5.00 PM). SWDs (a train of asymmetric 7-11 Hz sharp spikes and slow waves) were cut off from the raw data files and were analyzed by FFT analysis. The recording periods were split into 60 min sections and evaluated separately. […]\nAnimals were assigned into eight groups (FIG. 1). To help the rats to adapt to the experimental procedures (e.g., EEG recording), after the two-week recovery period animals were handled daily and were connected to the EEG/CED system for 4 days (once a day, for 4.5 h) (group 1-8). Moreover, on same days, rats of group 7 and group 8 were also gavaged by water (2.5 g/kg/day) for the adaptation of rats to gavage method. To establish averaged control SWD numbers (group 1-8) and control average time and total time of SWDs (group 5, group 6, and group 8), all rats received 1 mL saline i.p. on 3 consecutive days (three control days, first treatment). Thirty min later, animals were injected again with 1 mL saline i.p. (second treatment, group 1-6) or gavaged by 2.5 g/kg water (second treatment, group 7 and 8). […] On the fourth day of experiments, the rats in group 1 and group 2 were i.p. injected with 1 mL 10% DMSO solution (first treatment) and, 30 min later, with 250 mg/kg, and 1000 mg/kg uridine in 1 mL saline (second treatment), respectively. On the fourth day, animals in group 3 first received 0.2 mg/kg DPCPX alone in 1 mL 10% DMSO solution (first treatment) followed by i.p. 1 mL saline (30 min later; second treatment) (FIG. 1). […] On that day, the animals in group 5 were injected with combined i.p. injection of DPCPX and uridine: 0.2 mg/kg DPCPX in 1 mL 10% DMSO solution (first treatment) and, 30 min later, 1000 mg/kg uridine in 1 mL saline (second treatment) were administered. […] Animals of group 7 received i.p. 1 mL saline (first treatment), and 30 min later, gavage of 2.5 g/kg KSMCT was carried out (second treatment) on the fourth day. […] On the fifth (PTC) day, i.p. administration of 1 mL saline (first treatment) was followed by gavage of 2.5 g/kg water (30 min later; second treatment; group 7 and 8) (FIG. 1).\nData were presented as means±standard error of the mean (S.E.M.). The pretreatment control values of SWD numbers (group 1-8) and SWD time (group 5, group 6, and group 8) were the grand average of SWD numbers and time recorded on the three control days."}, "WAG/Rij rats [2]": {"system": "WAG/Rij rats", "conditions": "effective doses; previous studies [7,8,25,41,45]; cited from earlier work"}, "[3]": {"conditions": "DPCPX i.p. 0.2 mg/kg or SCH 58261 i.p. 0.5 mg/kg alone, PTC day (groups 3 and 4, FIG. 2C,D)"}}, "note": "Entries after “also recorded” stand apart in the source; their conditions may differ."}
{"smiles": "CCCn1c(=O)c2[nH]c(C3CCCC3)nc2n(CCC)c1=O", "note": "[DPCPX, 1,3-dipropyl-8-cyclopentylxanthine]", "values": [{"measurement": "SWD number compared to control", "setting": "WAG/Rij rats [1]; DPCPX i.p. 0.2 mg/kg alone, treatment day, 30-270 min (group 3, FIG. 2C), 0.2 mg/kg", "value": "did not evoke proepileptic effect; also recorded: did not generate changes in SWD number"}, {"measurement": "SWD number compared to control", "setting": "WAG/Rij rats [1]; [3]", "value": "did not change SWD number on PTC days"}, {"measurement": "sleep-waking ratios and averaged time of SWDs", "setting": "WAG/Rij rats [2]", "value": "did not change sleep-waking ratios and averaged time of SWDs"}]}
{"smiles": "Nc1nc2c(cnn2CCc2ccccc2)c2nc(-c3ccco3)nn12", "note": "[SCH 58261, 7-(2-phenylethyl)-5-amino-2-(2-furyl)-pyrazolo-[4,3-e]-1,2,4-triazolo[1,5-c]pyrimidine]", "values": [{"measurement": "SWD number compared to control", "setting": "WAG/Rij rats [1]; [3]", "value": "did not change SWD number on PTC days"}, {"measurement": "SWD number compared to control", "setting": "WAG/Rij rats [1]; SCH 58261 i.p. 0.5 mg/kg alone, treatment day, four hours recording (group 4, FIG. 2D)", "value": "did not generate anti-epileptic effect"}, {"measurement": "sleep-waking ratios and averaged time of SWDs", "setting": "WAG/Rij rats [2]", "value": "did not change sleep-waking ratios and averaged time of SWDs"}]}
{"smiles": "O=c1ccn([C@@H]2O[C@H](CO)[C@@H](O)[C@H]2O)c(=O)[nH]1", "note": "[uridine]", "values": [{"measurement": "SWD number compared to control", "setting": "WAG/Rij rats [1]; uridine i.p. 250 mg/kg alone, post-treatment control (PTC) day (group 1, FIG. 2A)", "value": "significant change in SWD number was not observed"}, {"measurement": "SWD number compared to control", "setting": "WAG/Rij rats [1]; uridine i.p. 250 mg/kg alone, treatment day, second to fourth hours of recording (group 1, FIG. 2A), 250 mg/kg", "value": "only a trend of non-significant decrease in SWD number"}, {"measurement": "SWD number compared to control", "setting": "WAG/Rij rats [1]; uridine i.p. 1000 mg/kg alone, PTC day, 30-270 min (group 2, FIG. 2B)", "value": "significantly decreased SWD number"}, {"measurement": "SWD number compared to control", "setting": "WAG/Rij rats [1]; uridine i.p. 1000 mg/kg alone, treatment day, 90-270 min (group 2, FIG. 2B), 1000 mg/kg", "value": "significantly decreased the SWD number"}, {"measurement": "sleep-waking ratios and averaged time of SWDs", "setting": "WAG/Rij rats [2]", "value": "did not change sleep-waking ratios and averaged time of SWDs"}]}
